Data set [1] deals with lipid-coated viruses. The note with it: against lipid-coated viruses; cited from earlier work.
A short description of data set [2]: stability of BHT in the preparation on storage, liquid chromatography. In kind it is physicochemical. On the procedure: Finally, the stability of BHT in a preparation according to the invention was tested: • a container with 40 kg of preparation, covered with a simple lid without any special packaging such as the addition of an inert gas (e.g. nitrogen), was placed in storage for three yeas.

In data set [3] the test system is transformed human keratinocytes (cell line TR 146). In words: acute ocular tolerance on reconstituted corneas ([…] model), MTT cell viability test. It counts as cell-based. Further details: key to Colour of the two cultures: deep blue/purple colour when they are viable; white/yellow in colour if cell death occurs. The method, then: To start with, the product was evaluated in terms of its capacity to trigger cytopathic effects on corneas reconstituted by means of in vitro transformed keratinocytes cultures.
When they are cultured at the air-liquid interface in a specific medium, transformed human keratinocytes (cell line TR 146) form epithelial tissue without a corneal layer, similar to the human eye.
A sample of the product to be studied (30 μl) was deposited on each of the six equivalent reconstituted corneal cultures and spread out using a thin brush.
Two cultures were then incubated at 37° C., 5% CO2 for 10 minutes, 1 hour, 3 hours and 24 hours.
Negative controls substances (buffered phosphate saline solution A) and positive controls substances (0.4% SDS for “sodium dodecyl sulfate” in solution A) were prepared under sterile conditions and deposited simultaneously on the other two cultures. These cultures were incubated for one hand 24 hours. […]
Cell viability was measured qualitatively after staining. […]
After incubation for 30 minutes at room temperature, each culture's colour is observed and recorded: • negative control cultures should be a deep blue/purple colour, evidence of the viability of cells in the basal layer after 24 hours in contact, • positive control cultures should be white, evidence of cell death from the first hour of contact.

SMILES strings stand for the structures.

In the case of `CC(C)(C)c1cc(C(=O)OCCOCCOCCOCCOCCOCCOCCOCCO)cc(C(C)(C)C)c1O` [AVF1, octaoxyethyleneglycol 3,5-di-tert-butyl-4-hydroxybenzoate], the antiviral properties entry in data set [1] is “antiviral properties”.

Turning to `CC(C)(C)c1cc(C(=O)O)cc(C(C)(C)C)c1O` [BG4, 3,5-di-tert-butyl-4-hydroxybenzoic acid], the antiviral properties entry in data set [1] is on record as “antiviral properties”.

For `Cc1cc(C(C)(C)C)c(O)c(C(C)(C)C)c1` [BHT, 3,5-di-tert-butyl-4-hydroxytoluene], the “BHT concentrations by liquid chromatography” value in data set [2] (40 kg of preparation in a container with simple lid, no inert gas, stored three years) is given as “remained the same”. Further, in data set [2] (storage for three years), the “stability of BHT in a preparation according to the invention” value was “excellent”. The antiviral properties result in data set [1] was “antiviral properties”.

For the molecule `CCCCCCCCCCCCOS(=O)(=O)[O-].[Na+]` [Positive control, sodium dodecyl sulfate], in data set [3] (1 hour contact, MTT), the “Colour of the two cultures” value is “white”. For the same molecule, the Toxicity entry in data set [3] (interpretation of the colours at 10 min, 1, 3 and 24 hours) is “VI (very irritant (VI): white at 10 minutes, 1 hour, 3 hours and 24 hours)”.

The values are drawn from patent US20050175644A1, “Preparation for oxidation-sensitive compounds and method for making same” (priority 2002, published 2005).
